Measurements published in article doi:10.1101/2024.01.03.573903v1 (biorxiv, 2024).

Target: T1, ZIKV NS3 helicase (Zika virus, UniProt Q32ZE1)
T1 sequence (Q32ZE1 1673-2115 limits assumed): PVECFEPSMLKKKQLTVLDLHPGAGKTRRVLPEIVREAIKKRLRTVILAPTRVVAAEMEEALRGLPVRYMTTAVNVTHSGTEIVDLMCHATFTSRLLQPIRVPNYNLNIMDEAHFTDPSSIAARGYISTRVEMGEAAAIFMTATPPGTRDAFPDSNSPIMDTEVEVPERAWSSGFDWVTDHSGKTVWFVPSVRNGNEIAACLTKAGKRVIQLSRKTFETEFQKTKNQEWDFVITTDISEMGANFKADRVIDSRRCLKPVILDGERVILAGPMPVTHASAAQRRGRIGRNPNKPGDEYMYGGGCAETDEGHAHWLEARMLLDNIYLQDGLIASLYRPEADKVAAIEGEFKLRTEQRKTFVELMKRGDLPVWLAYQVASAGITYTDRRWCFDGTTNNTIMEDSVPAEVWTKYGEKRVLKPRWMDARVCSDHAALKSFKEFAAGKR
Assay: malachite green phosphate release NTPase assay
Assay type: biochemical

Compound: COc1cc(/C=C/C(=O)CC(=O)/C=C/c2ccc(O)c(OC)c2)ccc1O [curcumin]
- IC50: 64.4 µM
